In patent US20250034139A1, “AMINE COMPOUNDS HAVING ANTI-INFLAMMATORY, ANTIFUNGAL, ANTIPARASITIC, AND ANTICANCER ACTIVITY” (PHARMA CINQ, LLC, priority 2013, published 2025):
Converted amounts (≈) assume the structure as drawn. “And” between values parts separate entries of the source, which are not always exact repeats. Identical values can stand only once. Like-named read-outs stand apart in the source and are kept apart here.

How the values were obtained:
[1] = tested on: Candida albicans strain 3153; experiment: Example H: Candida albicans growth inhibition (OD 600 nm); format: cell-based; conditions: for MIC: Candida albicans, 3153, 24 hrs at 30° C., YPD, XLfit, read-out: MIC (uM) (99% of inhibition of fungal growth); for IC50: Candida albicans, 3153, read-out: IC50 (uM) (50% inhibition of fungal growth), 24 hrs at 30° C., YPD, XLfit
Procedure, shortened: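 Growth inhibition computed as % versus DMSO control from OD600 after ~24 h at 30° C. Inoculum: washed overnight YPD culture of strain 3153 at 3.5×10^4 CFU/ml in YPD; final compound concentrations 0, 5, 10, 16, 22, 30, 40 μM, duplicate wells.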

[2] = tested on: 4T1 murine breast cancer cells; experiment: Example S: in vitro anticancer screen, 4T1 cells, Wst1; format: cell-based, mouse; conditions: Mus musculus, 4T1, 18 h, 18 hr, Wst1; for viability at 1 µM: read-out: 4T1 1 μM, percent of cancer cell survival relative to vehicle treated cells; for viability at 5 µM: read-out: 4T1 5 μM, percent of cancer cell survival relative to vehicle treated cells
Procedure, shortened: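 Read-out is Wst1 absorbance (450 nm, reference 630 nm) after roughly 2 hr dye incubation, giving percent cell survival versus vehicle. Before that, compounds at 1 μM or 5 μM were applied for 18 hr to 4T1 cells plated at 1×10^4 per well.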

[3] = tested on: Cryptococcus neoformans (serotype D); experiment: Example K: Cryptococcus neoformans (serotype D) growth inhibition; format: cell-based; conditions: Cryptococcus deneoformans; for IC50: read-out: IC50 (concentration for 50% of inhibition); for MIC: read-out: MIC (concentration for maximum-99% of inhibition)
THP-1 cells = experiment: Example D: LPS-triggered THP-1 cell death assay, acute/5-hour and chronic/48-hour; format: cell-based, Human; conditions: for Viable cell percent change, Chronic/48-hour, Mean: 10 ng/ml LPS, 0.1 μM test compound; for activity relative to AC in the LPS-triggered THP-1 cell death assay, in words: 0.1 μM, 5-hour and 48-hour time points
Procedure: Compounds of the invention were tested at 0.1 μM versus AC in the LPS-triggered THP-1 cell death assay. Both acute/5-hour and chronic/48-hour phases of cell death were assessed. Compounds were screened in batches with DMSO as the negative control and AC as the high activity control.

Trichophyton rubrum = experiment: Example J: Trichophyton rubrum growth inhibition, scoring by eye; format: cell-based; conditions: Trichophyton rubrum, 144 h; 6 days at 30° C., tested 6 to 40 μM; read-out: MIC, μM (maximum inhibition concentration, scoring by eye)
Procedure, shortened: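 Filtered T. rubrum suspension from PDA plates (grown 4 days, 30 °C) treated with diluted compounds in triplicate, incubated 6 days at 30 °C. Plates imaged; MIC scored by eye.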

[4] = OD of 48 hour reading, 37° C., tested 4 to 60 μM, XLfit

MIC [1] [µM] | IC50 [1] [µM] | IC50 [3, 4] [µM] | MIC [3, 4] [µM] | MIC (Trichophyton rubrum) [µM] | Structure (SMILES) | viability at 1 µM [2] [%] | viability at 5 µM [2] [%] | Viable cell percent change, Chronic/48-hour, Mean (THP-1 cells) [%] | activity relative to AC in the LPS-triggered THP-1 cell death assay, in words (THP-1 cells) | Viable cell percent change, Chronic/48-hour, Mean (THP-1 cells; 0.1 µM) | IC50 ([3]; 48 h) [µM]
27.3 (≈ 9.13 µg/mL) | 11 | 3.34 | 40.5 (≈ 13.6 µg/mL) | – | CCCCCCOc1ccc(CNc2ccnc3ccccc23)cc1 [AA, N-[4-(Hexyloxy)benzyl]quinolin-4-amine] | 69.1 | 31.2 | – | – | – | –
– | 7.82 | 0.53 | 6.99 (≈ 2.65 µg/mL) | 6 (≈ 2.28 µg/mL) | COc1ccc(OCCCCCCCCNc2ncnc3ccccc23)cc1 [AE, N-[8-(4-Methoxyphenoxy)octyl]quinazolin-4-amine] | – | – | 4.11 | equivalent activity to AC at both the 5-hour and 48-hour time points | – | –
74.2 (≈ 24.2 µg/mL) | 45.5 | 5.18 | 55.9 (≈ 18.2 µg/mL) | > 40 | c1ccc(Oc2cccc(CNc3ccnc4ccccc34)c2)cc1 [AF, N-(3-Phenoxybenzyl)quinolin-4-amine] | 24.7 | 25.6 | 13.79 | more active than AC at the chronic/48-hour time point | – | –
– | 10.7 | 0.85 | 24.6 (≈ 8.26 µg/mL) | 18 (≈ 6.04 µg/mL) | CCCCCCOc1cccc(CNc2ncnc3ccccc23)c1 [AK, N-[3-(Hexyloxy)benzyl]quinazolin-4-amine] | – | – | – | equivalent activity to AC at both the 5-hour and 48-hour time points | – | –
37.8 (≈ 12.5 µg/mL) | 15.3 | 1.46 | 26.8 (≈ 8.89 µg/mL) | 25 (≈ 8.29 µg/mL) | CCCCCCOCCCCCCCCn1cnc2cnccc21 [AS, 1-[8-(Hexyloxy)octyl]-1H-imidazo[4,5-c]pyridine] | 94.6 | 23.1 | 3.86 | – | – | –
30.9 (≈ 9.52 µg/mL) | 16.3 | 1.63 | 14.4 (≈ 4.42 µg/mL) | 12 (≈ 3.69 µg/mL) | CCCCCCOCCCCCCCCNc1ccncn1 [AU, N-[8-(Hexyloxy)octyl]pyrimidin-4-amine] | 93 | 23.2 | 16.86 | – | – | –
19.8 (≈ 7.34 µg/mL) | 13.4 | 5.12 | 22.9 (≈ 8.47 µg/mL) | 25 (≈ 9.26 µg/mL) | CCCCCCOCCCCCCCCNc1cc(C)nc2ccccc12 [AV, N-[8-(Hexyloxy)octyl]-2-methylquinolin-4-amine] | 136 | 30 | 38.76 | – | – | –
24.8 (≈ 9.7 µg/mL) | 13.3 | 0.9 | 8.73 (≈ 3.41 µg/mL) | 6 (≈ 2.35 µg/mL) | CCCCCCOCCCCCCCCNc1ccnc2cc(Cl)ccc12 [AW, 7-Chloro-N-[8-(hexyloxy)octyl]quinolin-4-amine] | 44.2 | 18 | – | – | – | –
21.1 (≈ 7.99 µg/mL) | 10.4 | 2.01 | 15.8 (≈ 5.99 µg/mL) | 18 (≈ 6.81 µg/mL) | CCCCCCOc1cccc(OCCCNc2ccnc3ccccc23)c1 [AZ, N-{3-[3-(Hexyloxy)phenoxy]propyl}quinolin-4-amine] | 52.2 | 29.1 | 50.12 | – | – | –
29.7 (≈ 10.8 µg/mL) | 12.2 | 3.45 | 13.2 (≈ 4.77 µg/mL) | 12 (≈ 4.35 µg/mL) | Cc1cccc(OCCCCCCCCNc2ccnc3ccccc23)c1 [BE, N-[8-(m-Tolyloxy)octyl]quinolin-4-amine] | 23.1 | 18.7 | 33.86 | – | – | –
26.9 (≈ 9.77 µg/mL) | 14.2 | – | – | 18 (≈ 6.53 µg/mL) | Cc1ccc(OCCCCCCCCNc2ccnc3ccccc23)cc1 [BF, N-[8-(p-Tolyloxy)octyl]quinolin-4-amine] | 17.2 | 19 | 31.64 | – | – | –
20.9 (≈ 7.56 µg/mL) | 11.5 | 2.13 | 12.5 (≈ 4.55 µg/mL) | 12 (≈ 4.35 µg/mL) | Cc1ccccc1OCCCCCCCCNc1ccnc2ccccc12 [BG, N-[8-(o-Tolyloxy)octyl]quinolin-4-amine] | 17.4 | 17.8 | – | – | 38.39% and 31.07% | –
27.8 (≈ 10.2 µg/mL) | 17.5 | 2.23 | 19.6 (≈ 7.17 µg/mL) | 18 (≈ 6.6 µg/mL) | Fc1cccc(OCCCCCCCCNc2ccnc3ccccc23)c1 [BI, N-[8-(3-Fluorophenoxy)octyl]quinolin-4-amine] | 30 | 17.3 | 27.30 | – | – | –
23.5 (≈ 8.6 µg/mL) | 13.3 | 1.86 | 18.5 (≈ 6.79 µg/mL) | 18 (≈ 6.6 µg/mL) | Fc1ccc(OCCCCCCCCNc2ccnc3ccccc23)cc1 [BJ, N-[8-(4-Fluorophenoxy)octyl]quinolin-4-amine] | 16.9 | 31.3 | 18.03 | – | – | –
19 (≈ 6.71 µg/mL) | 11.2 | 2.44 | 16.5 (≈ 5.82 µg/mL) | – | CCCCCCOc1ccc(CNc2ccnc3ccccc23)cc1F [BK, N-[3-Fluoro-4-(hexyloxy)benzyl]quinolin-4-amine] | – | – | 43.69 | equivalent activity to AC at both the 5-hour and 48-hour time points | – | –
44.5 (≈ 14.6 µg/mL) | 20.2 | 0.72 | 22.6 (≈ 7.38 µg/mL) | 18 (≈ 5.89 µg/mL) | c1ccc(Oc2cccc(CNc3ncnc4ccccc34)c2)cc1 [BM, N-(3-Phenoxybenzyl)quinazolin-4-amine] | – | – | 29.97 | more active than AC at the chronic/48-hour time point | – | –
16 (≈ 4.55 µg/mL) | 8.92 | 1.78 | 17.6 (≈ 4.99 µg/mL) | 18 (≈ 5.12 µg/mL) | CCCCCCCCCCNc1ccnc2ccccc12 [Compound AG, N-(Decyl)quinolin-4-amine] | – | – | – | more active than AC at the chronic/48-hour time point | – | –
15.4 (≈ 4.4 µg/mL) | 5.24 | 0.76 | 9.54 (≈ 2.72 µg/mL) | 6 (≈ 1.71 µg/mL) | CCCCCCCCCCNc1ncnc2ccccc12 [Compound AH, N-(Decyl)quinazolin-4-amine] | – | – | – | more active than AC at the chronic/48-hour time point | – | –

Structure (SMILES) | MIC [1] [µM] | IC50 [1] [µM] | IC50 [3, 4] [µM] | MIC [3, 4] [µM] | MIC (Trichophyton rubrum) [µM] | viability at 1 µM [2] [%] | viability at 5 µM [2] [%] | Viable cell percent change, Chronic/48-hour, Mean (THP-1 cells) [%] | activity relative to AC in the LPS-triggered THP-1 cell death assay, in words (THP-1 cells) | Viable cell percent change, Chronic/48-hour, Mean (THP-1 cells; 0.1 µM) | IC50 ([3]; 48 h) [µM]
CCCCOCCCCCCCCCCNc1ccnc2ccccc12 [AM, N-(10-Butoxydecyl)quinolin-4-amine] | 16.2 (≈ 5.77 µg/mL) | 6.52 | 3.32 | 13.3 (≈ 4.75 µg/mL) | 12 (≈ 4.28 µg/mL) | 24.3 | 29.5 | – | more active than AC at the chronic/48-hour time point | – | –
CCCCOCCCCCCCCCCn1cnc2cnccc21 [AT, 1-(10-Butoxydecyl)-1H-imidazo[4,5-c]pyridine] | 51.2 (≈ 17 µg/mL) | 14.5 | 1.29 | 41.8 (≈ 13.9 µg/mL) | 6 (≈ 1.99 µg/mL) | 31.7 | 18.7 | 30.34 | – | – | –
CCCCCCOc1cccc(CNc2ccnc3ccccc23)c1 [Compound AC, N-[3-(Hexyloxy)benzyl]quinolin-4-amine] | 108 (≈ 36 µg/mL) | 45.7 | – | 19.4 (≈ 6.49 µg/mL) | 18 (≈ 6.02 µg/mL) | 23.3 | 19.3 | – | – | – | 3.35
